Data set [1] can be described thus: Decitabine plasma pharmacokinetics in baboons (LC/MS). The procedure: Baboons were treated with IV decitabine 0.5 mg/kg (2 animals), SQ decitabine 0.5 mg/kg (2 animals), or oral decitabine 10 mg/kg (2 animals).
Decitabine was administered to two baboons IV (0.5 mg/kg), SQ (0.5 mg/kg) and orally (10 mg/kg). Blood was collected at 7 time-points and plasma concentrations were determined using an LC/MS/MS method adapted from a previously published method 26.
AUClast refers to the area under a plotted plasma concentration-time curve (not shown) at the last recorded timepoint.
Two baboons (PA7484 and PA7470) were administered oral THU 20 mg/kg (400 mg/m^2) 60 minutes prior to oral decitabine 5 mg/kg, or decitabine alone. After a wash-out period of greater than 2 weeks, these same two animals were administered oral THU 2 mg/kg […] 60 minutes prior to oral decitabine 5 mg/kg, or oral decitabine alone. […] Decitabine levels were measured at various timepoints by LC-MS. […]
To compare the effect of different routes of administration on the DAC concentration-time profile, plasma DAC levels were compared after IV or SC administration versus oral administration to the same animals (washout period of ≥2 weeks between drug administrations to the same animal). […] Blood was collected for up to 7 time-points after administration and plasma concentrations were determined using LC/MSMS. […]

Data set [2] has as its system normal CD34+ cells. Nature of the data set: Cell counts, morphology and colony formation. It is filed as cell-based. As to conditions: non-DNA-damaging DNMTI-depleting decitabine; Ara-C equimolar. From the text: The Kasumi-1 cell-line is derived from a patient with AMLI-ETO leukemia and represents a late-stage model of transformation and malignant evolution.
Data set [3] deals with normal CD34+ hematopoietic cells. Nature of the data set: DNA damage (Fast Micromethod for DNA scission, γH2AX flow cytometry). To be noted: decitabine 0.5 μM D1,3,5; Ara-C 0.5 μM D1,3,5; hydroxyurea 500 μM D1-5; measured D6. (In flow cytometry, cells or beads pass a laser one at a time.)
Procedure: Measurement was performed on D6.
Dark histogram=isotype control for flow-cytometricanalysis. Light histograms show the γH2AX staining for untreated control cells. Measurement was performed on D6.
Normal CD34 cells were isolated from cord blood. DAC 0.005 μM was added once daily on days 1-4 and DNMT1 was quantified by Western blot on day 5. […] Twenty-four hours after DAC or AraC exposure, DNA damage was measured by flow-cytometric assessment for phosphorylation of histone H2AX (γH2AX; B) or the Fast Micromethod for DNA scission (FIG. 19C). Equimolar levels of AraC were used as positive controls. Gray histogram is the isotype control. […] Twenty-four hours after DAC or AraC exposure, apoptosis was measured by flow-cytometric assessment for annexin staining. Double annexin/7-aminoactinomycin D (7AAD)-positive cells represent late apoptosis/necrosis. […] Results are expressed as a percentage of vehicle treated controls.
(§1) AraC, a cytidine analog that terminates DNA chain synthesis, was used as a positive control for DNA damage and apoptosis induction.
Data set [4] concerns normal hematopoietic precursors. It is filed as cell-based. To be noted: DAC 0.5 μM, equimolar Ara-C, clinically relevant levels of HU; measured D6.
Procedure: Measurement was performed on D6.
Normal CD34 cells were isolated from cord blood. […] Equimolar levels of AraC were used as positive controls. […] Twenty-four hours after DAC or AraC exposure, apoptosis was measured by flow-cytometric assessment for annexin staining. Double annexin/7-aminoactinomycin D (7AAD)-positive cells represent late apoptosis/necrosis. […] Results are expressed as a percentage of vehicle treated controls.
as §1
The subject of data set [5] is Reno-1 renal cell cancer xenograft. To be noted: mouse, in vivo. As for the experimental part: In an effort to apply the proposed formulation and regimen to treat different cancer histologies, a renal cell cancer cell-line (Reno-1) was developed from a surgical sample of renal cancer and used in a xeno-transplantation experiment. […] The percentage of necrosis in each tissue section was evaluated in a blinded fashion.

Data set [6] deals with baboons. Nature of the data set: Pharmacodynamic responses (HbF %, neutrophil counts) to decitabine with or without THU in baboons. It is filed as in vivo, baboon. On the set-up: ANC nadir: unit not given here. The procedure:
Fetal hemoglobin expression, HbF %, pre and post treatment with the indicated dose of decitabine. […] Oral treatment was with decitabine or a slightly modified decitabine (decitabine-mesylate—Dac-m).
Decitabine was administered at the doses indicated in two consecutive blocks of 5 days each. THU at the indicated doses was administered 60 minutes before each decitabine dose.

Where [7] appears, read: Oral 9.35 mg/kg/d, individual baboons, 9.35 mg/kg/day.
[8] abbreviates: Oral 18.7 mg/kg/d, individual baboons.

Where “and” joins values, the source holds several entries; their conditions need not be identical. Equal values may be shown once.

As for `O=C1NC(O)CCN1[C@@H]1O[C@H](CO)[C@@H](O)[C@H]1O` (some centres unmarked) [THU, Tetrahydrouridine], the “DAC concentrations, THU 400 mg/m^2 versus THU 40 mg/m^2” value in data set [1] (60 minutes before DAC 100 mg/m^2, PA7470 and PA7484) is “produced higher DAC concentrations”. In data set [1] (in vivo), the “DAC concentrations, THU 60 minutes before versus simultaneously or 30 minutes before DAC” value is reported as “produced higher DAC concentrations”.
On to `Nc1ccn([C@@H]2O[C@H](CO)[C@@H](O)[C@@H]2O)c(=O)n1` [Ara-C, cytosine arabinoside], for which the cell counts result in data set [2] is “more devastating to normal cells”. For the same molecule, the “DNA damage (Fast Micro-method for DNA scission, γH2AX)” value in data set [3] is reported as “cause significant DNA damage”. In data set [4], the “apoptosis (annexin V-FITC and 7AAD double staining)” value is “cause significant apoptosis and cell-death”.
As to “avastin: standard agent used to treat renal cancer”, the “sensitivity of the tumor to standard agents” value in data set [5] is “relatively resistant”.
For `CS(=O)(=O)O.Nc1ncn([C@H]2C[C@H](O)[C@@H](CO)O2)c(=O)n1` [Dac-m, decitabine-mesylate], the ANC nadir in data set [6] (Oral 4.1 mg/kg/d, baboon 7001) was 1417; in data set [6] (Oral 6.7 mg/kg/d, baboon 7002), 481; in data set [6] (setting [7]) it was 463 and 2000; in data set [6] (setting [8]) it was 1659. Further, the Post-HbF % is 13.1% in data set [6] (Oral 4.1 mg/kg/d, baboon 7001); 31.4% in data set [6] (Oral 6.7 mg/kg/d, baboon 7002); 62.3% and 40.5% in data set [6] (setting [7]); 67.8% in data set [6] (setting [8]).
